Peptide text beside a SMILES is read from it.
Legend:
[1] = system: diet-induced obesity (DIO) mouse model; assay: DIO mouse model QD: liver weight and steatosis score, H&E (Example 8-2); assay type: in vivo, mice; conditions: QD (once daily), 45 nmol/kg/dose
Excerpt: To examine liver weight and steatosis, the liver weight elevated by obesity induction and the degree of steatosis after liver H&E staining were scored from grades 0 to 3 to compare the drug's hepatic efficacy. First, after the test was completed, the animal's liver was excised on the day of necropsy to confirm the liver efficacy of the drug. After measuring the weight of the excised liver, the intermediate lobes were frozen in liquid nitrogen for the subsequent measurement of triglycerides. The remaining portion of the liver was fixed in 10% neutral buffered formalin and subjected to histopathological examination.
For H&E analysis, the liver tissue fixed in the buffered formalin was put into an automatic tissue processor, embedded in paraffin, and then prepared into a paraffin block. Subsequently, the paraffin block was prepared into a tissue section, which was stained with hematoxylin & eosin (H&E). The stained tissue slide was observed using an optical microscope (BX61, Olympus, Japan) and photographed (DP80, Olympus, Japan).
Histopathological quantification of liver tissue was performed by scoring the degree of steatosis on H&E-stained slides from grades 0 to 3. The contents corresponding to each scoring grade are as follows.

[2] = system: diet-induced obesity (DIO) mouse model; assay: DIO mouse model QD: body composition by DEXA (Example 7-2); assay type: in vivo, mice; conditions: QD (once daily), 45 nmol/kg/dose
Procedure: The anti-obesity effects of SEQ ID NO: 1 prepared in Example 1, and SEQ ID NOs: 6 and 7 prepared in Example 4 were analyzed. […] In addition, as an experimental model, a diet-induced obesity (DIO) mouse model fed a high-fat diet for 3 months was used.
To analyze the anti-obesity effect, body composition analysis was conducted using Dual Energy X-ray Absorptiometry (DEXA). The DEXA imaging system (VET DXA iNSiGHT) is for measuring the bone density and body fat of an experimental animal through dual X-ray transmission, and after the completion of experimental material administration, DEXA fat mass and muscle mass were measured for each individual. Accordingly, body weight was categorized into BMC, lean, and fat, and the fat reduction was analyzed to provide a more objective assessment of the anti-obesity effect according to Example 7-1.

C57BL/6 DIO mice = assay: Diet-induced obesity mouse model: body weight and food intake (Example 3); assay type: in vivo; conditions: 4 weeks administration, 0.20 mg/kg/dose
GLP-2 = target: T1, GLP-2 (Homo sapiens, UniProt O95838); assay: GLP-2 activity, cell-based cAMP assay (same method as Example 2); conditions: Example 5, relative to GLP-2
T1 sequence (O95838 1-553): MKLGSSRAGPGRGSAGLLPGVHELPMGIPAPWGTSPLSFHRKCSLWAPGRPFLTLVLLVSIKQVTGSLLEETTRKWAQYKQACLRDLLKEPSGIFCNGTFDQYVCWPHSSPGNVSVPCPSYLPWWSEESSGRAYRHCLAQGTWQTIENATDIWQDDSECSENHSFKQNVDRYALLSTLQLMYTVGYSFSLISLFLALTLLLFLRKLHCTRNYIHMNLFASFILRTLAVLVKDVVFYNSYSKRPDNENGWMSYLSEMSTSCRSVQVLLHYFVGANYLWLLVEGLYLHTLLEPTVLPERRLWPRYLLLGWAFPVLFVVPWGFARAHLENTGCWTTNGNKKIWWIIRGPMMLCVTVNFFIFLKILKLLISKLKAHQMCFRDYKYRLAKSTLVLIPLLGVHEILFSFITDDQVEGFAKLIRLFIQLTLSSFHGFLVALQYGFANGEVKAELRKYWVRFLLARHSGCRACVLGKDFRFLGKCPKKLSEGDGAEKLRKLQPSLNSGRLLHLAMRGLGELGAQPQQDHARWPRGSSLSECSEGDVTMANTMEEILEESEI

## CCCCCCCCCCCCCCCC(=O)N[C@@H](CCC(=O)NCCCC[C@H](NC(=O)[C@H](CCCCN)NC(=O)[C@H](CC(=O)O)NC(=O)[C@@H](NC(=O)[C@@H](NC(=O)[C@H](CCCCN)NC(=O)[C@@H](NC(=O)[C@H](CCC(N)=O)NC(=O)[C@@H](NC(=O)[C@H](CC(C)C)NC(=O)[C@H](Cc1c[nH]c2ccccc12)NC(=O)[C@H](CC(N)=O)NC(=O)[C@@H](NC(=O)[C@H](Cc1ccccc1)NC(=O)[C@H](CC(=O)O)NC(=O)[C@H](CCCNC(=N)N)NC(=O)[C@H](C)NC(=O)[C@H](C)NC(=O)[C@H](CC(C)C)NC(=O)[C@H](C)NC(=O)[C@H](CC(=O)O)NC(=O)[C@H](CC(C)C)NC(=O)[C@H](Cc1ccc(O)cc1)NC(=O)[C@@H](NC(=O)[C@H](CO)NC(=O)[C@H](CC(C)C)NC(=O)[C@H](CC(=O)O)NC(=O)[C@H](CO)NC(=O)[C@@H](NC(=O)[C@H](Cc1ccccc1)NC(=O)[C@@H](NC(=O)CNC(=O)[C@H](CCC(=O)O)NC(=O)CNC(=O)[C@@H](N)Cc1c[nH]cn1)[C@@H](C)O)[C@@H](C)O)[C@@H](C)O)[C@@H](C)CC)[C@@H](C)CC)[C@@H](C)O)[C@@H](C)CC)[C@@H](C)O)C(=O)O)C(=O)O [HU020K2FA] (HELM PEPTIDE1{H.G.E.G.T.F.T.S.D.L.S.T.Y.L.D.A.L.A.A.R.D.F.I.N.W.L.I.Q.T.K.I.T.D.K.K}|PEPTIDE2{[CCCCCCCCCCCCCCCC(=O)[*:2]].[gGlu]}$PEPTIDE1,PEPTIDE2,35:R3-2:R2$$$V2.0; N-terminus and C-terminus assumed)
[1]; DIO mice
  Liver weight: 1.58±0.10
[1]; H&E, mean of grades 0 to 3, DIO mice
  Hepatic steatosis test (Score 0~3): 0.97±0.47
[2]; DEXA, DIO mice
  Fat: 9.6 ± 1.0 g
  Lean: 26.5 ± 1.7 g
[2]; Table 9, DIO mice
  Weight: 37.5 ± 2.6 g
  Weight (%) (Normalized to DIO vehicle): 80.3±4.4%
C57BL/6 DIO mice
  Cumulative food intake: 55.3 ± 4.0 g
  Weight: 36.6 ± 4.0 g
C57BL/6 DIO mice; compared to day 0
  Weight change (%): -19.4±4.7%
GLP-2
  GLP-2 activity Compared to GLP-2: ~ 0.02%

Source: patent EP4741420A1, “PHARMACEUTICAL COMPOSITION FOR PREVENTING OR TREATING OBESITY COMPRISING GLP ANALOGUE AS ACTIVE INGREDIENT” (priority 2023, dated 2025)
